According to article PMC5974244, “Tumour-associated missense mutations in the dMi-2 ATPase alters nucleosome remodelling properties in a mutation-specific manner” (Nature Communications, 2018):

What was measured:
[1] = target: T1, dMi-2 (Drosophila melanogaster, UniProt O97159, V538F); assay: nitrocellulose filter binding with [gamma-32P]ATP; settings: labelled compound; same 90 nM protein, 0.25 mM MgCl2, 26 °C; printed as V558F (human CHD4 numbering)
T1 construct: gene Mi-2; FLAG-tagged dMi-2 (no truncation stated), baculovirus / Sf9 cells, anti-FLAG purified, FLAG peptide elution
T1 sequence (O97159 whole entry V538F, the tested form may be a part): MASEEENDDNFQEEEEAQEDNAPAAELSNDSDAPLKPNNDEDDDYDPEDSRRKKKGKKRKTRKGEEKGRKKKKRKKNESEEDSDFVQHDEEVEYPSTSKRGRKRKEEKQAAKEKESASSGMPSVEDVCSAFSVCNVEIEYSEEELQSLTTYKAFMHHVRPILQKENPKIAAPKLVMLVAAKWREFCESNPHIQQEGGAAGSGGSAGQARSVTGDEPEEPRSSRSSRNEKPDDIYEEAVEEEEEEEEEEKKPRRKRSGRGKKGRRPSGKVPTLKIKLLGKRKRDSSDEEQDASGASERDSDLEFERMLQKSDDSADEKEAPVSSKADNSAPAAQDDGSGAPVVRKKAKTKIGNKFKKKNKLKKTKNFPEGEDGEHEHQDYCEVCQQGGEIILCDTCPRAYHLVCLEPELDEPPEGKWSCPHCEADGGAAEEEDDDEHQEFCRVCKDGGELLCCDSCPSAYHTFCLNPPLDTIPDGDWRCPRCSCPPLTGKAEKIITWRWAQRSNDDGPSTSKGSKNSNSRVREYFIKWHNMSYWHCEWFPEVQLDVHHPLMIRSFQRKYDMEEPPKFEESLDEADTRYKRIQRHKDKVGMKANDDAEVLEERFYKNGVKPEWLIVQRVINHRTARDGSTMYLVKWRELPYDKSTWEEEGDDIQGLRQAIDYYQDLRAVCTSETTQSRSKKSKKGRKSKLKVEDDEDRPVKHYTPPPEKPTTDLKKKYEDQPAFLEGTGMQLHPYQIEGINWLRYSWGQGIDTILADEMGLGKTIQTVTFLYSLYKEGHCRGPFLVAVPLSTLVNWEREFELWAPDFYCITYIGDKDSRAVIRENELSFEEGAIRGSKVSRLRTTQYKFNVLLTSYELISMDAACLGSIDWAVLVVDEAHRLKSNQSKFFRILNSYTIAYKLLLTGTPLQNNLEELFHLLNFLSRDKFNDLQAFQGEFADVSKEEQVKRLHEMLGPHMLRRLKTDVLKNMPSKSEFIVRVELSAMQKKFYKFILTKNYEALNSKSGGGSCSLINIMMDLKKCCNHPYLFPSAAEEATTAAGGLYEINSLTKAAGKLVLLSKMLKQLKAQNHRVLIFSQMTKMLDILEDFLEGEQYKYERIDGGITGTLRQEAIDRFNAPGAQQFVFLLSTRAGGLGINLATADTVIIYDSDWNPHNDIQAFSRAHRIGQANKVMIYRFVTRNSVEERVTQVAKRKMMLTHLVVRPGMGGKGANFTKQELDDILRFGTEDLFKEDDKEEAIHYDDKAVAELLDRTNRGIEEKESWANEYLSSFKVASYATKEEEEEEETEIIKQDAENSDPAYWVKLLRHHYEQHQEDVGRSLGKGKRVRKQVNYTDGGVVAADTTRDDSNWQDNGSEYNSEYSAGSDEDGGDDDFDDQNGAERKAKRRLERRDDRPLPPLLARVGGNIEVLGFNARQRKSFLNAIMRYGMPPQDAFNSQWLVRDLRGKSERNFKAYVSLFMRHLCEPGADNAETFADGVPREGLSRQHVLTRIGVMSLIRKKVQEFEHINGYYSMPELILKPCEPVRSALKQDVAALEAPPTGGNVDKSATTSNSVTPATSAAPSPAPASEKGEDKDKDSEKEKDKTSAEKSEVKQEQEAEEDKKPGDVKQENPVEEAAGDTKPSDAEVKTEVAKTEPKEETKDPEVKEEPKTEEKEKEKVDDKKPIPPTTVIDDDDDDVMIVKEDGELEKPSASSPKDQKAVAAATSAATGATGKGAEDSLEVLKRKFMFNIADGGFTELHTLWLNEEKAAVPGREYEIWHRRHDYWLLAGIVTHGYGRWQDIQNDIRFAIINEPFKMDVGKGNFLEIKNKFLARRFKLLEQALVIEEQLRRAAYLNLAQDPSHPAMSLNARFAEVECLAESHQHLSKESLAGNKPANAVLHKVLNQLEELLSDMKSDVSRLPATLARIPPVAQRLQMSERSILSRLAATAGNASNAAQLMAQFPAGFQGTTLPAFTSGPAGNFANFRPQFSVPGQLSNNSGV

[2] = target: T2, dMi-2 (Drosophila melanogaster, UniProt O97159, R1164Q); assay: nitrocellulose filter binding with [gamma-32P]ATP; settings: labelled compound; same 90 nM protein, 0.25 mM MgCl2, 26 °C; printed as R1162Q (human CHD4 numbering)
T2 construct: gene Mi-2; FLAG-tagged dMi-2 (no truncation stated), baculovirus / Sf9 cells, anti-FLAG purified, FLAG peptide elution
T2 sequence (O97159 whole entry R1164Q, the tested form may be a part): as the sequence (O97159 whole entry V538F, the tested form may be a part) above, with F538V, R1164Q counted along it

[3] = target: T3, dMi-2 (Drosophila melanogaster, UniProt O97159, R552Q); assay: nitrocellulose filter binding with [gamma-32P]ATP; settings: labelled compound; same 90 nM protein, 0.25 mM MgCl2, 26 °C; printed as R572Q (human CHD4 numbering; also as R572Y in places, primer encodes Q)
T3 construct: gene Mi-2; FLAG-tagged dMi-2 (no truncation stated), baculovirus / Sf9 cells, anti-FLAG purified, FLAG peptide elution
T3 sequence (O97159 whole entry R552Q, the tested form may be a part): as the sequence (O97159 whole entry V538F, the tested form may be a part) above, with F538V, R552Q counted along it

[4] = target: T4, dMi-2 (Drosophila melanogaster, UniProt O97159, C452Y); assay: nitrocellulose filter binding with [gamma-32P]ATP; settings: labelled compound; same 90 nM protein, 0.25 mM MgCl2, 26 °C; printed as C464Y (human CHD4 numbering)
T4 construct: gene Mi-2; FLAG-tagged dMi-2 (no truncation stated), baculovirus / Sf9 cells, anti-FLAG purified, FLAG peptide elution
T4 sequence (O97159 whole entry C452Y, the tested form may be a part): as the sequence (O97159 whole entry V538F, the tested form may be a part) above, with C452Y, F538V counted along it

[5] = target: T5, dMi-2 (Drosophila melanogaster, UniProt O97159, H1153R); assay: nitrocellulose filter binding with [gamma-32P]ATP; settings: labelled compound; same 90 nM protein, 0.25 mM MgCl2, 26 °C; printed as H1151R (human CHD4 numbering)
T5 construct: gene Mi-2; FLAG-tagged dMi-2 (no truncation stated), baculovirus / Sf9 cells, anti-FLAG purified, FLAG peptide elution
T5 sequence (O97159 whole entry H1153R, the tested form may be a part): as the sequence (O97159 whole entry V538F, the tested form may be a part) above, with F538V, H1153R counted along it

[6] = target: T6, dMi-2 (Drosophila melanogaster, UniProt O97159, H1198Y); assay: nitrocellulose filter binding with [gamma-32P]ATP; settings: labelled compound; same 90 nM protein, 0.25 mM MgCl2, 26 °C; printed as H1196Y (human CHD4 numbering)
T6 construct: gene Mi-2; FLAG-tagged dMi-2 (no truncation stated), baculovirus / Sf9 cells, anti-FLAG purified, FLAG peptide elution
T6 sequence (O97159 whole entry H1198Y, the tested form may be a part): as the sequence (O97159 whole entry V538F, the tested form may be a part) above, with F538V, H1198Y counted along it

[7] = target: T7, dMi-2 (Drosophila melanogaster, UniProt O97159); assay: nitrocellulose filter binding with [gamma-32P]ATP; settings: labelled compound; 90 nM protein, 0.25 mM MgCl2, 100 mM KCl, 20 mM HEPES, 26 °C; competition by cold ATP
T7 construct: gene Mi-2; FLAG-tagged dMi-2 (no truncation stated), baculovirus / Sf9 cells, anti-FLAG purified, FLAG peptide elution
T7 sequence (O97159 whole entry, the tested form may be a part): as the sequence (O97159 whole entry V538F, the tested form may be a part) above, with F538V counted along it

[8] = target: T7, dMi-2; assay: ATPase assay, TLC of [gamma-32P]ATP; assay type: biochemical; settings: labelled compound as tracer; 20 µM ATP, saturating polynucleosomes, 26 °C, 30 min
[9] = target: T8, dMi-2 (Drosophila melanogaster, UniProt O97159, L914V); assay: nitrocellulose filter binding with [gamma-32P]ATP; settings: labelled compound; same 90 nM protein, 0.25 mM MgCl2, 26 °C; printed as L912V (human CHD4 numbering)
T8 construct: gene Mi-2; FLAG-tagged dMi-2 (no truncation stated), baculovirus / Sf9 cells, anti-FLAG purified, FLAG peptide elution
T8 sequence (O97159 whole entry L914V, the tested form may be a part): as the sequence (O97159 whole entry V538F, the tested form may be a part) above, with F538V, L914V counted along it

[10] = target: T9, dMi-2 (Drosophila melanogaster, UniProt O97159, L1217P); assay: nitrocellulose filter binding with [gamma-32P]ATP; settings: labelled compound; same 90 nM protein, 0.25 mM MgCl2, 26 °C; printed as L1215P (human CHD4 numbering)
T9 construct: gene Mi-2; FLAG-tagged dMi-2 (no truncation stated), baculovirus / Sf9 cells, anti-FLAG purified, FLAG peptide elution
T9 sequence (O97159 whole entry L1217P, the tested form may be a part): as the sequence (O97159 whole entry V538F, the tested form may be a part) above, with F538V, L1217P counted along it

% of WT binding activity [3]: 32%
SMILES: Nc1ncnc2c1ncn2[C@@H]1O[C@H](COP(=O)(O)OP(=O)(O)OP(=O)(O)O)[C@@H](O)[C@H]1O [ATP]
% of WT ATP binding activity [1]: Most dMi-2 mutants displayed robust ATP binding activity
% of WT ATP binding activity [2]: Most dMi-2 mutants displayed robust ATP binding activity
% of WT ATP binding activity [4]: Most dMi-2 mutants displayed robust ATP binding activity
% of WT ATP binding activity [5]: Most dMi-2 mutants displayed robust ATP binding activity
% of WT ATP binding activity [6]: Most dMi-2 mutants displayed robust ATP binding activity
nitrocellulose filter binding with [gamma-32P]ATP [7]: Binding of WT dMi-2 to radioactively labelled ATP was efficiently competed by an excess of
ATPase assay, TLC of [gamma-32P]ATP [8]: We performed ATPase assays in the absence or presence of saturating amounts of salt dialysis-assembled
% of WT ATP binding activity [9]: Most dMi-2 mutants displayed robust ATP binding activity
% of WT ATP binding activity [10]: Most dMi-2 mutants displayed robust ATP binding activity
